The subject of experiment [1] is SN12K1. The experiment in a line: cells. The format is functional. The conditions noted are these: Homo sapiens.
The test system of experiment [2] is P388. As to the kind of experiment: cells. The note with it: Mus musculus. The class given is functional.
The test system of experiment [3] is P388/ADR. As to the kind of experiment: cells. The format is functional. The conditions noted are these: Mus musculus.
Experiment [4] can be described thus: inhibitors of HIV Env-driven cell fusion, dose response, cherry-pick (AID 652057). The format is functional, cell-based.
Experiment [5] deals with Induced myeloid leukemia cell differentiation protein Mcl-1 (Homo sapiens, UniProt Q07820). The format is functional.
Sequence of Induced myeloid leukemia cell differentiation protein Mcl-1 (Q07820 whole entry): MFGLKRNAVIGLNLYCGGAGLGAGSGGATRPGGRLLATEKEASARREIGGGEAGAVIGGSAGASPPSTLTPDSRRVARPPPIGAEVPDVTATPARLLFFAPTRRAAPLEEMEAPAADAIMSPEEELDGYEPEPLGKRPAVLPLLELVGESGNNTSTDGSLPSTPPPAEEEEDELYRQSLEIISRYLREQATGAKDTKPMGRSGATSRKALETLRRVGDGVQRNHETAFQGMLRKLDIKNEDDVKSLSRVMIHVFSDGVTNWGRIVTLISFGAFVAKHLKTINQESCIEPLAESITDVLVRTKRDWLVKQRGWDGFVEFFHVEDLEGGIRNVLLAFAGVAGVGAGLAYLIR
The target in experiment [6] is FAD-linked sulfhydryl oxidase ALR (Homo sapiens, UniProt P55789). As to the kind of experiment: inhibitors of human ALR sulfhydryl oxidase, dose response, biochemical, H2O2 detection, luminescence, cherry-pick (AID 493248).
Sequence of FAD-linked sulfhydryl oxidase ALR (P55789 whole entry, the tested form may be a part): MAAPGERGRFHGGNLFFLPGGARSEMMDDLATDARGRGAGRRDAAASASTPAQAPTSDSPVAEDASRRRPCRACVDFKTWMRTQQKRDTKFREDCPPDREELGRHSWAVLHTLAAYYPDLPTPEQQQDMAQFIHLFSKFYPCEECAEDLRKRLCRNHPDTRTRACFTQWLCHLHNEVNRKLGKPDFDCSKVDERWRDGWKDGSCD
For experiment [7], the target named is T1, Fatty acid synthase (Homo sapiens, UniProt P49327). As to the kind of experiment: FAS thioesterase domain inhibitors, dose response, biochemical, kinetic fluorescence intensity (AID 624326).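 Note: rate of fluorescence rise from hydrolysis of a fluorogenic O-methyl fluorescein ester substrate.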 The class given is functional.
T1 sequence (P49327 whole entry, the tested form may be a part): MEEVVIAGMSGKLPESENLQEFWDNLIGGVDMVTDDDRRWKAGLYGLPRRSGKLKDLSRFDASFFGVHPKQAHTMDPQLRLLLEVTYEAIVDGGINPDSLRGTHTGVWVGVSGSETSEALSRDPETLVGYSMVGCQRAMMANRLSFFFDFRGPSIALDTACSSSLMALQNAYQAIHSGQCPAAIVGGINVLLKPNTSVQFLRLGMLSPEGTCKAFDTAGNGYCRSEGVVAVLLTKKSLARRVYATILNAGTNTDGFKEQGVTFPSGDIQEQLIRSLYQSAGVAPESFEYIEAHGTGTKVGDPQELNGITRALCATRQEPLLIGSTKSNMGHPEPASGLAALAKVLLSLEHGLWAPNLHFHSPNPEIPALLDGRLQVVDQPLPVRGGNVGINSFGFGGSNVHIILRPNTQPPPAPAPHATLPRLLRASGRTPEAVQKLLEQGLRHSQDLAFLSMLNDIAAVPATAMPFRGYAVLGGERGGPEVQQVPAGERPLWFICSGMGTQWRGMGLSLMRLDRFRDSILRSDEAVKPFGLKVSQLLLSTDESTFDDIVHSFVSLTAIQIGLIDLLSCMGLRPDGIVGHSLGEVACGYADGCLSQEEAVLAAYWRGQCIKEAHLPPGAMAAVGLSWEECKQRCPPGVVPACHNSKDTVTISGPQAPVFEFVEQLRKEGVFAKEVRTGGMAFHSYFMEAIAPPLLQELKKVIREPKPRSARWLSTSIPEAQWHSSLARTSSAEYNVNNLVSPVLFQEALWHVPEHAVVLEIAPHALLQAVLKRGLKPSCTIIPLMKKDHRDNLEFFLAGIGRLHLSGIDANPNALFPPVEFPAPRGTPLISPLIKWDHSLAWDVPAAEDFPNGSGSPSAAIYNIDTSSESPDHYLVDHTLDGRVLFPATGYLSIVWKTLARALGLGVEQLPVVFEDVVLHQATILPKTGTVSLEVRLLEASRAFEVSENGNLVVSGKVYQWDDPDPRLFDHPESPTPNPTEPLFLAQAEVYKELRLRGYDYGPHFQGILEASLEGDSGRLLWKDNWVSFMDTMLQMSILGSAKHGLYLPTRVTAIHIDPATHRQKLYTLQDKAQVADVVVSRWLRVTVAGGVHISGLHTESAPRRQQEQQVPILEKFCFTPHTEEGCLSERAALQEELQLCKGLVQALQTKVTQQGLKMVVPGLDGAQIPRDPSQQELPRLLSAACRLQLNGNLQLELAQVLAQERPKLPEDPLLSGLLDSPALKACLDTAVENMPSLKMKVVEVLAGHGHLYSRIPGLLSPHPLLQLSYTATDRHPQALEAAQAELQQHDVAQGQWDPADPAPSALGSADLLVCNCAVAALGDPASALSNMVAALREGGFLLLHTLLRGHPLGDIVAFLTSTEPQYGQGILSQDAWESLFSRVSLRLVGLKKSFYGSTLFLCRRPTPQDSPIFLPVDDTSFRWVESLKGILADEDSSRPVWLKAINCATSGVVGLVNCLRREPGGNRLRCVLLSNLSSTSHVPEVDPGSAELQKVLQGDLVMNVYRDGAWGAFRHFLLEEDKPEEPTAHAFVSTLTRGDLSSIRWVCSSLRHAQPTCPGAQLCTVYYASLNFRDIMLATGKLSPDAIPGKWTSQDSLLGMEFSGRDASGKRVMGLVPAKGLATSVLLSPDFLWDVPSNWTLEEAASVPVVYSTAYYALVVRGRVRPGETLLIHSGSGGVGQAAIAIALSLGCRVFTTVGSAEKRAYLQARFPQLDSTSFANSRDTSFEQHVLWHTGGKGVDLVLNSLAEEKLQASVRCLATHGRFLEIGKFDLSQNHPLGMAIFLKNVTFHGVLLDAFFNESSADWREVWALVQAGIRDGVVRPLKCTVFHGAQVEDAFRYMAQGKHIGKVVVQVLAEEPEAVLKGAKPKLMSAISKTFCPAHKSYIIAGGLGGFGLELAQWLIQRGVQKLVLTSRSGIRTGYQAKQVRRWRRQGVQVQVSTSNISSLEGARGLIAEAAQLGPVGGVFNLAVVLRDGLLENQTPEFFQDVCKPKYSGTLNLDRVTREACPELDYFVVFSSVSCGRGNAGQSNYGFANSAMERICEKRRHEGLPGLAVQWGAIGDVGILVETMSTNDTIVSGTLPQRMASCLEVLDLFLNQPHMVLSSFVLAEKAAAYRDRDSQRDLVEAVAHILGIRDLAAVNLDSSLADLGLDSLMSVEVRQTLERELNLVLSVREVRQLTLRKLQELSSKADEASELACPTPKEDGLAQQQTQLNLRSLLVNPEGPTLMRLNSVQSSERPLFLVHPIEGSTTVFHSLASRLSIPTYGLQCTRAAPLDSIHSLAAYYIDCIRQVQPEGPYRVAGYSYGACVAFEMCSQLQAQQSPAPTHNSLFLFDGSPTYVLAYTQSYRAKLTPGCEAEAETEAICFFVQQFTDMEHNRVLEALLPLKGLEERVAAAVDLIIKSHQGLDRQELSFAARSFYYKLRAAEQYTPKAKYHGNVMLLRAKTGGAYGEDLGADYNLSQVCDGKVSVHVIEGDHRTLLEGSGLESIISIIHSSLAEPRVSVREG
Experiment [8] concerns the target T1, Fatty acid synthase. The experiment in a line: FAS thioesterase domain inhibitors, dose response, biochemical, endpoint fluorescence intensity, uHTS hits (AID 624327).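 Note: fluorescence from hydrolysis of an O-methyl fluorescein acyl ester substrate by the enzyme.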 The format is functional.
Experiment [9] has as its target T2, Aminopeptidase N (Plasmodium falciparum FcB1/Columbia, UniProt O96935).
T2 sequence (O96935 whole entry): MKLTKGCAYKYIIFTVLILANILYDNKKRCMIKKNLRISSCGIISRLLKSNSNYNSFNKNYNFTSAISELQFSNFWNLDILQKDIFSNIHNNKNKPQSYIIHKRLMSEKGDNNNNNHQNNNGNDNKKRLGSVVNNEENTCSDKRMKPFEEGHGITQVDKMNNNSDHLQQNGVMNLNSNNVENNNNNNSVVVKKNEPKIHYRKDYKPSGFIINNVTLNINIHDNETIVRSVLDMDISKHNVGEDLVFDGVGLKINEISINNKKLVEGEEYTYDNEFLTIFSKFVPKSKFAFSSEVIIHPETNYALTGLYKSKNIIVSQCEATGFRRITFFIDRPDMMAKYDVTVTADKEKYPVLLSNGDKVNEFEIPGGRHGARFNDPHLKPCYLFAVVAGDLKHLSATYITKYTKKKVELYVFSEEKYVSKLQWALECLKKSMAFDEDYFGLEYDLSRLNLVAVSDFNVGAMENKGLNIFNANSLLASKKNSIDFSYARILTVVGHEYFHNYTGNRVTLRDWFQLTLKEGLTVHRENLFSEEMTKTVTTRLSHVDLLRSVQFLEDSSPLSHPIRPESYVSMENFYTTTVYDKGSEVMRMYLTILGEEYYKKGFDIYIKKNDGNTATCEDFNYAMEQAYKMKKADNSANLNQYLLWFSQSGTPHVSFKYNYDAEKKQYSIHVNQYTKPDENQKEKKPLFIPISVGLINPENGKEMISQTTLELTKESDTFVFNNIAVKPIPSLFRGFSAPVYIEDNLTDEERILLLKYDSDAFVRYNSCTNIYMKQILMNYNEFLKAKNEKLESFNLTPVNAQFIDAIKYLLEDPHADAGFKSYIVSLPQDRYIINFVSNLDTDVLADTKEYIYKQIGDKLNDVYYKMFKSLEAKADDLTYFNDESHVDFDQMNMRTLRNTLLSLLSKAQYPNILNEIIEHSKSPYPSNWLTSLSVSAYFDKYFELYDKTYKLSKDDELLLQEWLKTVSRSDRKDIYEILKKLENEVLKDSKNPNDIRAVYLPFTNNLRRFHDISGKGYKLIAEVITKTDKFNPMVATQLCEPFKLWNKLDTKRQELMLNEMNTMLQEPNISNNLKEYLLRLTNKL
The experiment in a line: P. falciparum M1AAP inhibitors, biochemical, fluorogenic H-Leu-NHMec substrate, 1536-well (AID 1445). More on the design: species or system Plasmodium falciparum 3D7, 3D7.

The target in experiment [10] is T3, Heat shock factor protein 1 (Mus musculus, UniProt P38532).
T3 sequence (P38532 whole entry): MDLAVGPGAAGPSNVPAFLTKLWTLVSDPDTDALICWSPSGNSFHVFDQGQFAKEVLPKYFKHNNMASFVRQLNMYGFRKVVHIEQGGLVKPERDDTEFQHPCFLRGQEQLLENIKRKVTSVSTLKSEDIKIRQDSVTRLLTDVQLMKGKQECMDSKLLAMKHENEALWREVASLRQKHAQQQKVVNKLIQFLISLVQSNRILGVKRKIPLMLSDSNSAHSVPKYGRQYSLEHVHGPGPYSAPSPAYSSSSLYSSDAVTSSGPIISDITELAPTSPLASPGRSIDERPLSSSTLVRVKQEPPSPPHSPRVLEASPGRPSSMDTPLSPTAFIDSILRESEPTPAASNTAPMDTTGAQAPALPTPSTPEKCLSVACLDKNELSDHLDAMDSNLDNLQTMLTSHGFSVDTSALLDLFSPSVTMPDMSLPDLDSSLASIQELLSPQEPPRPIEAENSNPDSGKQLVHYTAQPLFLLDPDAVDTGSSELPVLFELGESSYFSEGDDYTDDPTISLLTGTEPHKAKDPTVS
The experiment in a line: HSF1 potentiators in luciferase reporter cells, confirmation, cell-based, NIH3T3, luminescence, dose retest (AID 435004).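 Note: stress induced by proteasome inhibitor MG132 added 30 min after compound; luciferase reporter driven by HSF1 response element in NIH3T3 cells; actives raise luminescence as potentiators of the MG132 stress response.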 The class given is functional.

Experiment [11] can be described thus: NIH-3T3 fibroblast cytotoxicity, dose response, cytotoxicity control, cell-based, fluorescence, Alamar Blue, secondary assay (AID 2327).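 Note: NIH-3T3 mouse fibroblasts cultured with fluconazole at 8 µg/mL.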 The class given is functional. In general terms: Resazurin is reduced to fluorescent resorufin, in cell work by metabolically active cells.
Experiment [12] in a line: C. albicans growth with fluconazole, confirmation, fluorescence, retest (AID 2467). The format is functional, cell-based.
Experiment [13] can be described thus: inhibitors of intracellular T. cruzi replication, confirmation, NIH3T3 host cells, beta-gal luminescence (AID 2044).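 Note: intracellular parasites grown in NIH/3T3 mouse fibroblasts as host cells; luminescent beta-galactosidase reporter signal from transgenic T. cruzi replicating inside host cells; inhibitors lower the luminescence signal.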 The format is functional, cell-based.
In experiment [14] the test system is INS1. As to the kind of experiment: beta cell apoptosis inhibitors, cytokine rescue, dose response, luminescence, retest (AID 449756).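 Note: cell death triggered by IL-1 beta plus TNF-alpha plus IFN-gamma mixture; protective hits raise ATP signal compared with cytokine alone wells.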 The format is functional, cell-based. The note with it: Rattus norvegicus.
Experiment [15] can be described thus: cytotoxicity toward NIH3T3 fibroblasts, dose response, counter-screen, cell-based, ATP luminescence, mouse fibroblasts (AID 2010).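 Note: cells exposed to compound for about 90 hours before reading.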 The format is functional. (In general: Counterscreens check selectivity or assay interference.)

Calls of active or inactive are those of the source. Where only a bound is given, the exact number is not on record here.

In general, GI50 refers to the concentration that inhibits growth by half. Consider `CC(/C=N/N=C(N)N)=N\N=C(N)N`, for which the results for the GI50 in experiment [1], in [2] and in experiment [3] were 2.17 µM (inactive), 0.25 µM (active) and 0.519 µM (active), respectively.
Take `COC1C(O)CC(OC2CC(Oc3cc4cc5c(c(O)c4c(O)c3C)C(=O)[C@@H](OC3CC(OC4CC(OC6CC(C)(O)C(OC(C)=O)C(C)O6)C(O)C(C)O4)C(O)C(C)O3)[C@H]([C@H](OC)C(=O)[C@@H](O)[C@@H](C)O)C5)OC(C)C2OC(C)=O)OC1C` (some centres not stated) [CHROMOMYCIN]: the GI50 was 0.0034 µM (active) in experiment [1] and 0.132 µM (active) in [3].
In the case of `Cc1c2c(cc3c1[nH]c1ccccc13)C(c1ccc(F)cc1)=NCC2`, the GI50 in experiment [1] is 0.925 µM (active); in experiment [2], 0.809 µM (active); in experiment [3], 0.448 µM (active).
The AC50 is the concentration giving half of the maximal activity seen. Consider `CC(C)CC#Cc1ccc2c(c1)O[C@@H](CN(C)C(=O)C1CCCCC1)[C@H](C)CN([C@@H](C)CO)S2(=O)=O`, for which the AC50 in experiment [4] was 27.8 µM (active).
In the case of `Nc1ncc2c(n1)-c1ccccc1OC2`, the GI50 in experiment [1] and in [2] was > 100 µM (inactive) throughout.
One may read the IC50 as the point on the concentration scale where inhibition reaches its midpoint. Turning to `Cc1ccc(N2C(=O)NC(=O)/C(=C/c3cnc(-c4ccccc4)nc3)C2=O)cc1C`, in experiment [5], the IC50 was 1.66 µM (active).
With `COc1ccc(C2CC(c3ccccc3)=NN2c2ccccc2)c(C(=O)O)c1OC` (configuration not stated), in [6], the AC50 was 4.74 µM (active).
Consider `COc1ccc(CC(=N)NOC(=O)c2cccc([N+](=O)[O-])c2)cc1`, for which the IC50 in experiment [7] was 14.6 µM (active); in [8], 18.3 µM (active).
`CCO/C(O)=C1/C(CC)=Nc2ccccc2N=C1NS(=O)(=O)c1cc(Br)ccc1Br`: the 50% inhibitory concentration (IC50) in experiment [9] is 30.3 µM (active).
`COc1cc([C@@H]2c3cc4c(c(O[C@@H]5O[C@H]6CO[C@@H](C)O[C@H]6[C@H](O)[C@@H]5O)c3C[C@H]3COC(=O)[C@@H]32)OCO4)cc(OC)c1O`: the GI50 in experiment [1] was 10.9 µM (inactive); in experiment [2], 2.16 µM (inactive).
As for `Cc1ccc(NC2CCCN(C(=O)c3cn4cc(Cl)ccc4n3)C2)cc1C` (configuration not stated), the AC50 in experiment [6] was 1.01 µM (active).
By EC50 is commonly meant the midpoint of the concentration-response curve. As to `COc1cccc(NC(=O)CN2C(=O)COc3ccc(S(=O)(=O)N4CCC(C)CC4)cc32)c1`, the half-inhibitory concentration (IC50) in [7] is 6.57 µM (active); in experiment [8] it was 7.97 µM (active). In experiment [10], the EC50 is > 260 µM (inactive).
For `O=C1CC(N2CCN(c3ccc(S(=O)(=O)N4CCOCC4)cc3)CC2)C(=O)N1Cc1ccccc1` (configuration not stated), the IC50 is 7.53 µM (active) in experiment [7] and 8.79 µM (active) in experiment [8].
`Cc1ccc(S(=O)(=O)Nc2cc(C)c(O)cc2C)cc1`: the concentration at half-maximal activity (AC50) in [6] was 3.11 µM (active).
As for `O=C(NN/C=C1\C(=O)N(c2ccccc2Cl)C(=O)c2ccccc21)c1cccnc1`, in experiment [9], the IC50 is 32.6 µM (active).
For `CC1=CC2c3cccc4[nH]cc(c34)CC2N(C)C1` (configuration not stated), the GI50 was 27.2 µM (inactive) in experiment [1], 31 µM (inactive) in [2] and 14.2 µM (inactive) in experiment [3].
Consider `O=S(=O)(O)c1cc2ccc1/C=C\c1ccc(cc1S(=O)(=O)O)/N=N\c1ccc(c(S(=O)(=O)O)c1)/C=C\c1ccc(cc1S(=O)(=O)O)/N=N\2`, for which the GI50 in [1], in experiment [2] and in experiment [3] was > 100 µM (inactive) in each case.
On to `O=CNCCCc1nc2ccccc2n1Cc1cccc2ccccc12`, for which the EC50 is > 150 µM (inactive) in experiment [11] and 4.77 µM (active) in [12].
As for `CCCCCCCC[n+]1cccc2c3ccccc3ccc21`, the EC50 in experiment [11] was 69.2 µM (active); in [12] it was 2.81 µM (active); in [13], 0.161 µM (active); in experiment [15] it was 8.8 µM (active). Further, in experiment [14], the AC50 was 0.268 µM (active).
On to `O=C(CC1C[C@H](C(=O)N2CCOCC2)[C@@]2(CCC3CCCC3)c3[nH]c4ccccc4c3CCN2C1=O)NCCCn1ccnc1` (some centres not stated), for which the values for the IC50 in experiment [7] and in experiment [8] were 2.7 µM (active) and 4.37 µM (active), respectively.
On to `CN(C)CCNC(=O)c1cccc2c1C(=O)c1ccccc1C2=O`, for which the figures for the GI50 in [1], in experiment [2] and in experiment [3] were 49.5 µM (inactive), 19.7 µM (inactive) and 20.8 µM (inactive), respectively.
`Sc1nc2cc(Cl)c3cccnc3c2o1`: the results for the EC50 in experiment [11], in experiment [12] and in [10] were > 150 µM (inactive), > 38 µM (not active) and > 260 µM (inactive), respectively.
Take `O=C1N/C(=N\c2ccccc2)S/C1=C\C=C\c1ccco1`: the half-inhibitory concentration (IC50) in experiment [5] is 12.2 µM (active).
As for `NC(S)=NNc1cccc(Cl)c1`, the EC50 was > 160 µM (inactive) in [11] and > 38 µM (not active) in experiment [12].
With `Cc1ccc(C(=O)NCCSc2snnc2C)cc1`, in experiment [6], the AC50 was 0.117 µM (active).
`Cc1cc(C)c(NS(=O)(=O)c2cccc3cccnc23)c(C)c1`: the figures for the EC50 in experiment [11] and in experiment [12] were 38.5 µM (active) and > 38 µM (not active), respectively.
Turning to `O=C(CCC1CCCN(C(=O)c2ccc3cc[nH]c3c2)C1)NCc1ccc(F)c(F)c1` (configuration not stated), the IC50 in experiment [9] is 33.1 µM (active). For the same compound, the EC50 in [10] was 38.9 µM (active).
As to `O=C(CCN1CCOCC1)Nc1c(O)nc2ccc(Br)cc2c1-c1ccccc1`, in experiment [9], the IC50 is 93.9 µM (active).
On to `CCc1n[nH]c(C(=O)N2CCCC(Nc3cccc(F)c3)C2)c1C` (configuration not stated), for which, in experiment [6], the AC50 was 2.88 µM (active).
